This passage reports TGI results from PubChem BioAssay (NCI).

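Following 48 hours of exposure in 96-well plates, responses at five concentrations were used to interpolate endpoints linearly. TGI: total growth inhibition.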

Test systems include A549 NSCLC; BT-549 breast; CAKI-1 renal; HCC-2998 colon; HL-60(TB) leukemia; HOP-92 NSCLC; IGROV1 ovarian; K-562 leukemia; MDA-MB-435; MOLT-4 leukemia; NCI-H226 lung; OVCAR-3 ovarian; OVCAR-4 ovarian; SF-268 CNS; SF-295 CNS; SK-OV-3 ovarian; SNB-75 CNS; TK-10 renal; U251 CNS; UACC-257 melanoma.
Test in all cases: NCI anticancer screen, dose series, 48 h

Turning to `Cc1ccc(NC(=O)CSc2nc(C)nc3c2sc(=S)n3-c2ccccc2)cc1`, the TGI with A549 NSCLC was over 10 µM; in the assay with BT-549 breast, 9.55 µM; in the assay on CAKI-1 renal, over 10 µM; in the assay with HCC-2998 colon, over 10 µM; in the assay with HL-60(TB) leukemia, over 10 µM; in the assay with HOP-92 NSCLC, 9.04 µM. Further, the TGI in the assay on IGROV1 ovarian was over 10 µM; in the assay with K-562 leukemia, over 10 µM; in the assay with MDA-MB-435, over 10 µM; in the assay with MOLT-4 leukemia it was over 10 µM; in the assay on NCI-H226 lung, 9.43 µM; in the assay with OVCAR-3 ovarian, over 10 µM. Also, the TGI with OVCAR-4 ovarian is 6.06 µM; with SF-268 CNS, over 10 µM; in the assay with SF-295 CNS, over 10 µM; in the assay with SK-OV-3 ovarian, over 10 µM; with SNB-75 CNS, 4.84 µM; with TK-10 renal it was over 10 µM. The TGI in the assay on U251 CNS and with UACC-257 melanoma was over 10 µM in each case.
In the case of `Oc1cc(Br)cc2cccnc12`, the TGI in the assay with A549 NSCLC was over 87.2 µM; with BT-549 breast, 98 µM; with CAKI-1 renal it was 39 µM; with HCC-2998 colon, 98.2 µM; in the assay with HL-60(TB) leukemia, 0.82 µM; in the assay with HOP-92 NSCLC, 38 µM. The TGI in the assay with IGROV1 ovarian was 8.22 µM; in the assay with K-562 leukemia, 8.08 µM; in the assay on MDA-MB-435, over 60 µM; in the assay with MOLT-4 leukemia, 9.84 µM; in the assay with NCI-H226 lung, 58 µM; in the assay on OVCAR-3 ovarian, 13.7 µM. Besides, the TGI is over 65.3 µM in the assay with OVCAR-4 ovarian; over 42.2 µM in the assay on SF-268 CNS; 32.7 µM with SF-295 CNS; 79.9 µM in the assay with SK-OV-3 ovarian; over 91.5 µM with SNB-75 CNS; over 100 µM with TK-10 renal. The TGI in the assay on U251 CNS is over 58.4 µM; in the assay on UACC-257 melanoma it was 6.93 µM.
As for `COC1CC(OC2C(C)OC(OC3C(C)OC(OC4C(O)CC(O[C@H]5CC[C@@]6(C)C(=CC[C@]7(O)[C@@H]6C[C@@H](OC(=O)/C=C/c6ccccc6)[C@@]6(C)[C@]7(O)CC[C@@]6(O)C(C)=O)C5)OC4C)CC3OC)CC2OC)OC(C)C1O` (some centres not stated), the TGI in the assay with A549 NSCLC, in the assay with BT-549 breast, with CAKI-1 renal, with HCC-2998 colon, with HL-60(TB) leukemia and in the assay on HOP-92 NSCLC was over 6.25 µM each time. In addition, the TGI in the assay on IGROV1 ovarian, with K-562 leukemia, in the assay on MDA-MB-435, in the assay with MOLT-4 leukemia, in the assay with NCI-H226 lung and in the assay on OVCAR-3 ovarian was over 6.25 µM throughout. Also, the TGI in the assay with OVCAR-4 ovarian, with SF-268 CNS, with SF-295 CNS, in the assay with SK-OV-3 ovarian, in the assay on SNB-75 CNS and with TK-10 renal was over 6.25 µM in each case. Moreover, the TGI with U251 CNS and with UACC-257 melanoma was over 6.25 µM each time.
`C=CC(c1ccccc1)[C@@]1(OC(C)=O)C(=O)C(=O)OC1C1COC(C)(C)O1` (some centres not stated): the TGI was 34.5 µM in the assay on A549 NSCLC; 30.1 µM in the assay on BT-549 breast; 11.7 µM in the assay with CAKI-1 renal; 32.8 µM in the assay with HCC-2998 colon; 5.86 µM with HL-60(TB) leukemia; 15.9 µM in the assay with HOP-92 NSCLC. Besides, the TGI was 31.9 µM in the assay with IGROV1 ovarian; over 26 µM with K-562 leukemia; 31.2 µM with MDA-MB-435; 34.6 µM in the assay on MOLT-4 leukemia; 37.6 µM in the assay with NCI-H226 lung; 24.8 µM in the assay on OVCAR-3 ovarian. For the same compound, the TGI came to 30.5 µM in the assay on OVCAR-4 ovarian; 71.4 µM in the assay on SF-268 CNS; 31.6 µM in the assay on SF-295 CNS; 32.3 µM in the assay on SK-OV-3 ovarian; 36.6 µM with SNB-75 CNS; 27.1 µM in the assay with TK-10 renal. Moreover, the TGI in the assay on U251 CNS is 28.7 µM; in the assay with UACC-257 melanoma, 23.9 µM.
For the compound `COc1c(C)c2c(c(=O)c3c(C)cccc3n2C)c2c1c(=O)c1c(C)cccc1n2C`, the TGI in the assay on A549 NSCLC, with BT-549 breast, in the assay on CAKI-1 renal, with HCC-2998 colon, with HL-60(TB) leukemia and in the assay with HOP-92 NSCLC was over 10 µM in each case. In addition, the TGI in the assay on IGROV1 ovarian, in the assay on K-562 leukemia, in the assay with MDA-MB-435, with MOLT-4 leukemia, with NCI-H226 lung and in the assay on OVCAR-3 ovarian was over 10 µM throughout. Further, the TGI in the assay on OVCAR-4 ovarian, in the assay on SF-268 CNS, with SF-295 CNS, in the assay on SK-OV-3 ovarian, in the assay with SNB-75 CNS and with TK-10 renal was over 10 µM throughout. Also, the TGI in the assay with U251 CNS and in the assay on UACC-257 melanoma was over 10 µM throughout.
Take `CC(C)(C)c1cc(-c2cc(C(C)(C)C)n(-c3ccccc3)n2)nn1-c1ccccc1`: the TGI in the assay on A549 NSCLC, in the assay with BT-549 breast, in the assay with CAKI-1 renal, in the assay on HCC-2998 colon, in the assay on HL-60(TB) leukemia and in the assay on HOP-92 NSCLC was over 100 µM in each case. Further, the TGI in the assay with IGROV1 ovarian, with K-562 leukemia, in the assay on MDA-MB-435, in the assay on MOLT-4 leukemia, in the assay with NCI-H226 lung and in the assay with OVCAR-3 ovarian was over 100 µM in each case. The TGI with OVCAR-4 ovarian, in the assay on SF-268 CNS, in the assay with SF-295 CNS, in the assay with SK-OV-3 ovarian, in the assay with SNB-75 CNS and in the assay with TK-10 renal was over 100 µM throughout. Besides, the TGI in the assay on U251 CNS and in the assay on UACC-257 melanoma was over 100 µM in each case.
As for `NNC(=O)c1ccccc1NC(=O)/C(=C/c1ccccc1O)NC(=O)c1ccccc1`, the TGI was over 100 µM in the assay with A549 NSCLC; over 100 µM with BT-549 breast; 31.8 µM in the assay with CAKI-1 renal; over 100 µM in the assay on HCC-2998 colon; over 100 µM in the assay with HL-60(TB) leukemia; over 100 µM in the assay with HOP-92 NSCLC. The TGI in the assay with IGROV1 ovarian, in the assay with K-562 leukemia, in the assay on MDA-MB-435, with MOLT-4 leukemia, in the assay with NCI-H226 lung and with OVCAR-4 ovarian was over 100 µM throughout. In addition, the TGI in the assay on SF-268 CNS was 28.1 µM; with SF-295 CNS, over 100 µM; in the assay with SK-OV-3 ovarian it was over 100 µM; in the assay with SNB-75 CNS, 25.9 µM; in the assay with TK-10 renal, over 100 µM; in the assay with U251 CNS, over 100 µM. Also, the TGI with UACC-257 melanoma was over 100 µM.
For `CC(=O)Nc1ccc(NC(=O)c2c(Cl)c(Cl)c(Cl)c(Cl)c2-c2nc3ccccc3[nH]2)cc1`, the TGI in the assay with A549 NSCLC is over 100 µM; in the assay on BT-549 breast it was over 100 µM; in the assay with CAKI-1 renal it was over 100 µM; in the assay on HCC-2998 colon it was over 100 µM; with HL-60(TB) leukemia, 67.6 µM; in the assay on HOP-92 NSCLC, 71.7 µM. Further, the TGI was over 100 µM in the assay on IGROV1 ovarian; over 100 µM in the assay on K-562 leukemia; over 100 µM in the assay with MDA-MB-435; 98.7 µM in the assay with MOLT-4 leukemia; over 100 µM in the assay with NCI-H226 lung; over 100 µM with OVCAR-3 ovarian. In addition, the TGI with OVCAR-4 ovarian, in the assay with SF-268 CNS, in the assay on SF-295 CNS, in the assay on SK-OV-3 ovarian, in the assay on SNB-75 CNS and in the assay on UACC-257 melanoma was over 100 µM each time.
For `COc1cc(C2c3cc(O)c(OC)cc3C3OCC2C3CO)ccc1O` (configuration not stated), the TGI in the assay on A549 NSCLC, with BT-549 breast, in the assay on CAKI-1 renal, in the assay with HCC-2998 colon, in the assay on HL-60(TB) leukemia and in the assay with HOP-92 NSCLC was over 100 µM throughout. In addition, the TGI in the assay on K-562 leukemia, with MDA-MB-435, in the assay with MOLT-4 leukemia, with NCI-H226 lung, in the assay on OVCAR-3 ovarian and in the assay on OVCAR-4 ovarian was over 100 µM each time. The TGI in the assay on SF-268 CNS, with SF-295 CNS, in the assay with SK-OV-3 ovarian, with SNB-75 CNS, in the assay with TK-10 renal and in the assay with U251 CNS was over 100 µM in each case.
Regarding `COc1ccc(-c2c(=O)[nH]n3c(=S)nc(-c4ccccc4)[nH]c23)cc1OC`, the TGI with A549 NSCLC was over 100 µM; in the assay on BT-549 breast, 37.6 µM; with CAKI-1 renal, 51.6 µM; in the assay on HCC-2998 colon, 36.1 µM; in the assay on HL-60(TB) leukemia, 39.3 µM; in the assay on HOP-92 NSCLC, 37 µM. For the same compound, the TGI with IGROV1 ovarian turned out to be 56.7 µM; in the assay with K-562 leukemia, 95 µM; in the assay on MDA-MB-435, 39.2 µM; in the assay with MOLT-4 leukemia, 33.4 µM; in the assay on NCI-H226 lung it was 40.7 µM; with OVCAR-4 ovarian, 61.1 µM. The TGI in the assay with SF-268 CNS was over 100 µM; in the assay with SF-295 CNS it was 51.4 µM; in the assay with SK-OV-3 ovarian, 55.9 µM; in the assay with SNB-75 CNS, 54 µM; with TK-10 renal, 53.1 µM; with U251 CNS it was 58.5 µM. The TGI with UACC-257 melanoma was found to be 61.1 µM.
Regarding `O=C1SS(=O)c2ccccc21` (configuration not stated), the TGI in the assay on A549 NSCLC, in the assay with BT-549 breast, in the assay with CAKI-1 renal, in the assay on HCC-2998 colon, in the assay on HL-60(TB) leukemia and in the assay on HOP-92 NSCLC was over 100 µM throughout. The TGI in the assay with IGROV1 ovarian, with K-562 leukemia, in the assay with MDA-MB-435, in the assay with MOLT-4 leukemia, in the assay on NCI-H226 lung and in the assay on OVCAR-3 ovarian was over 100 µM throughout. Also, the TGI in the assay on OVCAR-4 ovarian, with SF-295 CNS, in the assay with SK-OV-3 ovarian, with SNB-75 CNS, in the assay with U251 CNS and in the assay on UACC-257 melanoma was over 100 µM throughout.
